Experimental data taken from patent US6559101B2, “N- (5, 7-dimethoxy [1, 2, 4] triazolo [1, 5-a] pyrimidin-2-yl) arylsulfonamide compounds and their use as herbicides” (Dow AgroSciences LLC, priority 2000, dated 2003).

Legend:
Format in all cases: in vivo
[1] = system: morningglory (Ipomoea hederacea); test: Preemergence herbicidal activity; conditions: scored after 3 weeks, 0 no injury, 100 complete kill or no germination
Protocol: (§1) The soil matrix was contained in plastic pots with a surface area of 161 square centimeters. When required to ensure good germination and healthy plants, a fungicide treatment and/or other chemical or physical treatment was applied. A weighed amount, determined by the highest rate to be tested, of each test compound was placed in a 20 mL glass vial and was dissolved in 8 mL of a 97:3 v/v (volume/volume) mixture of acetone and dimethyl sulfoxide to obtain concentrated stock solutions. […] The stock solutions obtained were diluted with a 99.9:0.1 mixture of water and Tween® 155 surfactant (ethoxylated sorbitan fatty acid ester) to obtain application solutions of known concentration. The solutions containing the highest concentration to be tested were prepared by diluting 4 mL aliquots of the stock solution with 8.5 mL of the mixture and lower concentrations were prepared by dilution of appropriate smaller portions of the stock solution. A 2.5 mL aliquot of each solution of known concentration was sprayed evenly onto the soil of each seeded pot using a Cornwall 5.0 mL glass syringe fitted with a TeeJet TN-3 hollow cone nozzle to obtain thorough coverage of the soil in each pot. Control pots were sprayed in the same manner with the aqueous mixture. A highest application rate of 4.48 kg/ha is achieved when 50 mg of test compound is employed. The treated pots and control pots were placed in a greenhouse with an approximately 15 hr photoperiod which was maintained at about 23-29° C. during the day and 22-28° C. during the night. Nutrients and water were added on a regular basis and supplemental lighting was provided with overhead metal halide 1000 Watt lamps as necessary. The water was added by top-irrigation. After 3 weeks the condition of the test plants that germinated and grew as compared with that of the untreated plants that germinated and grew was determined visually and scored on a scale of 0 to 100 percent where 0 corresponds to no injury and 100 corresponds to complete kill or no germination.

[2] = system: cocklebur (Xanthium strumarium); test: Preemergence herbicidal activity; conditions: scored after 3 weeks, 0 no injury, 100 complete kill or no germination
Protocol: as §1

[3] = system: wild poinsettia (Euphorbia heterophylla); test: Preemergence herbicidal activity; conditions: scored after 3 weeks, 0 no injury, 100 complete kill or no germination
Protocol: as §1

[4] = system: velvetleaf (Abutilion theophrasti); test: Preemergence herbicidal activity; conditions: scored after 3 weeks, 0 no injury, 100 complete kill or no germination
Protocol: as §1

[5] = system: crabgrass (Digitaria sanguinalis); test: Preemergence herbicidal activity; conditions: scored after 3 weeks, 0 no injury, 100 complete kill or no germination
Protocol: as §1

[6] = system: lambsquarters (Chenopodium album); test: Preemergence herbicidal activity; conditions: scored after 3 weeks, 0 no injury, 100 complete kill or no germination
Protocol: as §1

wild oats (Avena fatua) [7] = test: Preemergence herbicidal activity; conditions: scored after 3 weeks, 0 no injury, 100 complete kill or no germination
Protocol: as §1

[8] = system: pigweed (Amaranthus retroflexus); test: Preemergence herbicidal activity; conditions: scored after 3 weeks, 0 no injury, 100 complete kill or no germination
Protocol: as §1

[9] = system: blackgrass (Alopecurus myosuroides); test: Preemergence herbicidal activity; conditions: scored after 3 weeks, 0 no injury, 100 complete kill or no germination
Protocol: as §1

[10] = system: barnyardgrass (Echinochloa crus-galli); test: Preemergence herbicidal activity; conditions: scored after 3 weeks, 0 no injury, 100 complete kill or no germination
Protocol: as §1

[11] = system: giant foxtail (Setaria faberi); test: Preemergence herbicidal activity; conditions: scored after 3 weeks, 0 no injury, 100 complete kill or no germination
Protocol: as §1

[12] = system: Rox orange sorghum (Sorghum bicolor); test: Preemergence herbicidal activity; conditions: scored after 3 weeks, 0 no injury, 100 complete kill or no germination
Protocol: as §1

[13] = system: wild buckwheat (Polygonum convolvulus); test: Postemergence herbicidal activity; conditions: scored after 2 weeks, 0 no injury, 100 complete kill
Protocol: (§2) Seeds of the desired test plant species were planted in Grace-Sierra MetroMix® 306 planting mixture, which typically has a pH of 6.0 to 6.8 and an organic matter content of about 30 percent, in plastic pots with a surface area of 64 square centimeters. When required to ensure good germination and healthy plants, a fungicide treatment and/or other chemical or physical treatment was applied. The plants were grown for 7-21 days in a greenhouse with an approximately 15 hr photoperiod which was maintained at about 23-29° C. during the day and 22-28° C. during the night. Nutrients and water were added on a regular basis and supplemental lighting was provided with overhead metal halide 1000 Watt lamps as necessary. The plants were employed for testing when they reached the first or second true leaf stage. A weighed amount of each test compound, determined by the highest rate to be tested, was placed in a 20 mL glass vial and was dissolved in 4 mL of a 97:3 v/v (volume/volume) mixture of acetone and dimethyl sulfoxide to obtain concentrated stock solutions. […] The concentrated stock solutions obtained were diluted with an aqueous mixture containing acetone, water, iso-propyl alcohol, dimethyl sulfoxide, Atplus 411F crop oil concentrate, and Triton X-155 surfactant (methylenebisdiamyl phenoxy polyethoxy ethanol) in a 48.5:39:10:1.5:1.0:0.02 v/v ratio to obtain spray solutions of known concentration. The solutions containing the highest concentration to be tested were prepared by diluting 2 mL aliquots of the stock solution with 13 mL of the mixture and lower concentrations were prepared by dilution of appropriate smaller portions of the stock solution. Approximately 1.5 mL aliquots of each solution of known concentration were sprayed evenly onto each of the test plant pots using a Devilbiss atomizer driven by compressed air pressure of 2 to 4 psi (140 to 280 kiloPascals) to obtain thorough coverage of each plant. Control plants were sprayed in the same manner with the aqueous mixture. In this test an application rate of 1 ppm results in the application of approximately 1 g/ha. The treated plants and control plants were placed in a greenhouse as described above and watered by sub-irrigation to prevent wash-off of the test compounds. After 2 weeks the condition of the test plants as compared with that of the untreated plants was determined visually and scored on a scale of 0 to 100 percent where 0 corresponds to no injury and 100 corresponds to complete kill.

[14] = system: morningglory (Ipomoea hederacea); test: Postemergence herbicidal activity; conditions: scored after 2 weeks, 0 no injury, 100 complete kill
Protocol: as §2

[15] = system: cocklebur (Xanthium strumarium); test: Postemergence herbicidal activity; conditions: scored after 2 weeks, 0 no injury, 100 complete kill
Protocol: as §2

[16] = system: velvetleaf (Abutilion theophrasti); test: Postemergence herbicidal activity; conditions: scored after 2 weeks, 0 no injury, 100 complete kill
Protocol: as §2

[17] = system: lambsquarters (Chenopodium album); test: Postemergence herbicidal activity; conditions: scored after 2 weeks, 0 no injury, 100 complete kill
Protocol: as §2

wild oats (Avena fatua) [18] = test: Postemergence herbicidal activity; conditions: scored after 2 weeks, 0 no injury, 100 complete kill
Protocol: as §2

viola (Viola tricolor) = test: Postemergence herbicidal activity; conditions: scored after 2 weeks, 0 no injury, 100 complete kill
Protocol: as §2

[19] = system: pigweed (Amaranthus retroflexus); test: Postemergence herbicidal activity; conditions: scored after 2 weeks, 0 no injury, 100 complete kill
Protocol: as §2

[20] = system: blackgrass (Alopecurus myosuroides); test: Postemergence herbicidal activity; conditions: 15.6 ppm; scored after 2 weeks; 0 no injury, 100 complete kill
Protocol: as §2

[21] = system: chickweed (Stellaria media); test: Postemergence herbicidal activity; conditions: scored after 2 weeks, 0 no injury, 100 complete kill
Protocol: as §2

[22] = system: giant foxtail (Setaria faberi); test: Postemergence herbicidal activity; conditions: scored after 2 weeks, 0 no injury, 100 complete kill
Protocol: as §2

[23] = system: Rox orange sorghum (Sorghum bicolor); test: Postemergence herbicidal activity; conditions: scored after 2 weeks, 0 no injury, 100 complete kill
Protocol: as §2

For `CCOc1nccc(C(F)(F)F)c1S(=O)(=O)Nc1nc2nc(OC)cc(OC)n2n1` [Compound 19], the “Preemergence herbicidal activity IPOHE” value ([1]; 35 g/Ha) was 50%, the “Preemergence herbicidal activity XANST” value ([2]; 35 g/Ha) was 85% and the “Preemergence herbicidal activity EPHHL” value ([3]; 35 g/Ha) was 50%. For the same compound, the “Preemergence herbicidal activity ABUTH” value ([4]; 35 g/Ha) was 80%, the “Preemergence herbicidal activity DIGSA” value ([5]; 35 g/Ha) was 80% and the “Preemergence herbicidal activity CHEAL” value ([6]; 35 g/Ha) was 100%. For the same compound, the “Preemergence herbicidal activity AVEFA” value (wild oats (Avena fatua) [7]; 35 g/Ha) was 60%, the “Preemergence herbicidal activity AMARE” value ([8]; 35 g/Ha) was 100% and the “Preemergence herbicidal activity ALOMY” value ([9]; 35 g/Ha) was 100%. The “Preemergence herbicidal activity ECHCG” value ([10]; 35 g/Ha) was 70%, the “Preemergence herbicidal activity SETFA” value ([11]; 35 g/Ha) was 30% and the “Preemergence herbicidal activity SORBI” value ([12]; 35 g/Ha) was 60%. The “Postemergence herbicidal activity POLCO” value ([13]; 15.6 ppm) was 90%, the “Postemergence herbicidal activity IPOHE” value ([14]; 15.6 ppm) was 75% and the “Postemergence herbicidal activity XANST” value ([15]; 15.6 ppm) was 90%. The “Postemergence herbicidal activity ABUTH” value ([16]; 15.6 ppm) was 75%, the “Postemergence herbicidal activity CHEAL” value ([17]; 15.6 ppm) was 95% and the “Postemergence herbicidal activity AVEFA” value (wild oats (Avena fatua) [18]; 15.6 ppm) was 50%. The “Postemergence herbicidal activity VIOTR” value (viola (Viola tricolor); 15.6 ppm) was 90%, the “Postemergence herbicidal activity AMARE” value ([19]; 15.6 ppm) was 90% and the “Postemergence herbicidal activity ALOMY” value [20] was 80%. For the same compound, the “Postemergence herbicidal activity STEME” value ([21]; 15.6 ppm) was 95%, the “Postemergence herbicidal activity SETFA” value ([22]; 15.6 ppm) was 60% and the “Postemergence herbicidal activity SORBI” value ([23]; 15.6 ppm) was 50%.
With `CCc1ccc(OC)c(S(=O)(=O)Nc2nc3nc(OC)cc(OC)n3n2)c1` [Compound 9] the “Preemergence herbicidal activity IPOHE” value ([1]; 70 g/Ha) was 30%, the “Preemergence herbicidal activity XANST” value ([2]; 70 g/Ha) was 0% and the “Preemergence herbicidal activity EPHHL” value ([3]; 70 g/Ha) was 0%. The “Preemergence herbicidal activity ABUTH” value ([4]; 70 g/Ha) was 20%, the “Preemergence herbicidal activity DIGSA” value ([5]; 70 g/Ha) was 0% and the “Preemergence herbicidal activity CHEAL” value ([6]; 70 g/Ha) was 30%. For the same compound, the “Preemergence herbicidal activity AVEFA” value (wild oats (Avena fatua) [7]; 70 g/Ha) was 0%, the “Preemergence herbicidal activity AMARE” value ([8]; 70 g/Ha) was 40% and the “Preemergence herbicidal activity ALOMY” value ([9]; 70 g/Ha) was 0%. The “Preemergence herbicidal activity ECHCG” value ([10]; 70 g/Ha) was 0%, the “Preemergence herbicidal activity SETFA” value ([11]; 70 g/Ha) was 20% and the “Preemergence herbicidal activity SORBI” value ([12]; 70 g/Ha) was 0%. For the same compound, the “Postemergence herbicidal activity POLCO” value ([13]; 62.5 ppm) was 50%, the “Postemergence herbicidal activity IPOHE” value ([14]; 62.5 ppm) was 10% and the “Postemergence herbicidal activity XANST” value ([15]; 62.5 ppm) was 70%. The “Postemergence herbicidal activity ABUTH” value ([16]; 62.5 ppm) was 30%, the “Postemergence herbicidal activity CHEAL” value ([17]; 62.5 ppm) was 80% and the “Postemergence herbicidal activity AVEFA” value (wild oats (Avena fatua) [18]; 62.5 ppm) was 20%. The “Postemergence herbicidal activity VIOTR” value (viola (Viola tricolor); 62.5 ppm) was 50%, the “Postemergence herbicidal activity AMARE” value ([19]; 62.5 ppm) was 70% and the “Postemergence herbicidal activity STEME” value ([21]; 62.5 ppm) was 50%. The “Postemergence herbicidal activity SETFA” value ([22]; 62.5 ppm) was 30% and the “Postemergence herbicidal activity SORBI” value ([23]; 62.5 ppm) was 30%.
